This assay has as its system Varroa mites. Briefly: Test set-up 2004: honeybee colonies infested with Varroa mites, count of mites fallen down in the hive. In kind it is in vivo, Varroa destructor or Varroa jacobsoni. The procedure:
For the test set-up 2004 two bee colonies (A and B) were chosen, which were not used for honey production because of the medium applied for subsequent evaluation of residues and also because colony B was a swarming colony. Each colony consisted of approx. 25,000 animals. Both colonies were housed each in two so-called ‘Herold’ or ‘Zeitler’ hives with 10 frames. Their infestation, colony size, brood and general state was examined and approved.
In the beginning only hive A was treated with the mixture, hive B remained untreated in order to gain reference data. Over a period of 3½ months seven treatments took place with a longer break period of more than 30 days between two treatment cycles. At the end, two treatments with Perizin® were carried out in order to check on remaining mite infestation.
Approx. […] The hive was opened and from the top the medium was finely distributed with the lance at 5 cm intervals into the spaces between the frames. First the lower than immediately the upper frame was treated.
Before the hive was covered again two minutes were allowed for aeration. The time needed for treatment of each hive was one to two minutes (without aeration).
In order to ascertain the amount of mites fallen down in the hive the floor boards of both hives (A and B) were lined entirely with two ‘diapers’ and covered with Vaseline coated paper. This was done in order to make sure that mites which might have been still alive were prevented from running away. This process was repeated after every mite count.
The colonies C to L represented reference colonies and served to ascertain the Varroa density at the location (those hives were only lined with diapers). As those were predominantly migrating colonies they were not available throughout the whole duration of the treatment, but they still represent the general situation.
Especially as many apiarists relocate their hives there is always infestation with Varroa in spite of preventive measures taken. When recording the mites found amounts of 50 animals were counted exactly.
The course of the test is outlined here in note form: […]

As to `O=CO` [formic acid], the “count of mites fallen down in the hive” value is 1.200 (reference colony C, check-up 6 Sep. 2004, after formic acid (60%) evaporation of 30 Aug., amounts above 50 partially counted and extrapolated); 160 (reference colony C, check-up 20 Sep. 2004, after second formic acid treatment of 6 Sep.); 600 (reference colony D, check-up 6 Sep. 2004, after formic acid (60%) evaporation of 30 Aug., amounts above 50 partially counted and extrapolated); 40 (reference colony D, check-up 20 Sep. 2004, after second formic acid treatment of 6 Sep.); 400 (reference colony E, check-up 6 Sep. 2004, after formic acid (60%) evaporation of 30 Aug., amounts above 50 partially counted and extrapolated); 50 (reference colony E, check-up 20 Sep. 2004, after second formic acid treatment of 6 Sep.). Moreover, the “count of mites fallen down in the hive” value (reference colony F, check-up 6 Sep. 2004, after formic acid (60%) evaporation of 30 Aug.) worked out at 50; the “count of mites fallen down in the hive” value (reference colony F, check-up 20 Sep. 2004, after second formic acid treatment of 6 Sep.) is 10; the “count of mites fallen down in the hive” value (reference colony G, check-up 6 Sep. 2004, after formic acid (60%) evaporation of 30 Aug., amounts above 50 partially counted and extrapolated) is reported as 400; the “count of mites fallen down in the hive” value (reference colony G, check-up 20 Sep. 2004, after second formic acid treatment of 6 Sep.) is given as 100; the “count of mites fallen down in the hive” value (reference colony H, check-up 6 Sep. 2004, after formic acid (60%) evaporation of 30 Aug., amounts above 50 partially counted and extrapolated) is listed as 500; the “count of mites fallen down in the hive” value (reference colony H, check-up 20 Sep. 2004, after second formic acid treatment of 6 Sep.) is reported as 240. Further, the “count of mites fallen down in the hive” value (reference colony I, check-up 6 Sep. 2004, after formic acid (60%) evaporation of 30 Aug.) was found to be 50; the “count of mites fallen down in the hive” value (reference colony I, check-up 20 Sep. 2004, after second formic acid treatment of 6 Sep.) was 38; the “count of mites fallen down in the hive” value (reference colony J, check-up 6 Sep. 2004, after formic acid (60%) evaporation of 30 Aug., amounts above 50 partially counted and extrapolated) is listed as 200; the “count of mites fallen down in the hive” value (reference colony J, check-up 20 Sep. 2004, after second formic acid treatment of 6 Sep.) amounted to 44; the “count of mites fallen down in the hive” value (reference colony K, check-up 6 Sep. 2004, after formic acid (60%) evaporation of 30 Aug., amounts above 50 partially counted and extrapolated) is given as 200; the “count of mites fallen down in the hive” value (reference colony K, check-up 20 Sep. 2004, after second formic acid treatment of 6 Sep.) came out at 60. Also, the “count of mites fallen down in the hive” value is on record as 200 (reference colony L, check-up 6 Sep. 2004, after formic acid (60%) evaporation of 30 Aug., amounts above 50 partially counted and extrapolated); 100 (reference colony L, check-up 20 Sep. 2004, after second formic acid treatment of 6 Sep.).

The values above are taken from US20090131539A1 (priority 2005, published 2009).
